Legend:
morningglory [1] = assay: Test B pre-/postemergence herbicide test; format: in vivo, Ipomoea coccinea; details: for Morningglory plant response rating: postemergence
Procedure, shortened: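 Greenhouse pot assay with simultaneous preemergence (treated seed) and postemergence (2–18 cm seedlings) applications of surfactant-containing, non-phytotoxic solvent formulations. Response scored visually 13–15 days later on a 0–100 scale, 100 meaning complete control.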

large crabgrass = assay: Test A pre-/postemergence herbicide test; format: in vivo, Digitaria sanguinalis
Procedure, shortened: (§1)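 Greenhouse injury scoring (0–100, complete control = 100) at approximately ten days follows simultaneous pre- and postemergence application. Soil received a directed spray after seeding; seedlings of 2–10 cm at the one- to two-leaf stage were sprayed to runoff.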

bermudagrass = assay: Test C pre-/postemergence herbicide test; format: in vivo, Cynodon dactylon; details: for Bermudagrass plant response rating: 500 g ai/ha
Procedure, shortened: (§2)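 Pre/post spray; non-phytotoxic solvent + surfactant. Post-timing 1–4 leaves, 2–18 cm. Read-out: visual % control vs untreated, day 12–14, greenhouse.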

barnyardgrass = assay: Test B flooded paddy test; format: in vivo, Echinochloa crus-galli; details: 1000 g ai/ha, scale 0 to 100 (0 no effect, 100 complete control)
Procedure, shortened: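 Greenhouse test; postemergence application to plants at 1–4 leaves (2–18 cm); paddy species at 2 leaves; evaluated visually vs controls at 13–15 days; scale 0–100 (100 = complete control).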

[2] = tested on: smallflower umbrella sedge; assay: Test C flooded paddy test; format: in vivo, Cyperus difformis; details: for Plant response rating, Sedge, Umbrella: 500 g ai/ha, visual rating after 12 to 14 days
morningglory [3] = assay: Test C pre-/postemergence herbicide test; format: in vivo, Ipomoea coccinea; set-up: key to Plant response rating, Morningglory: 0 = no effect, 100 = complete control; details: for Morningglory plant response rating: 500 g ai/ha
Procedure, shortened: as §2

velvetleaf = assay: Test A pre-/postemergence herbicide test; format: in vivo, Abutilon theophrasti
Procedure, shortened: as §1

rice = assay: Test B pre-/postemergence herbicide test; format: in vivo, Oryza sativa; details: 0 = no effect, 100 = complete control, preemergence
Procedure, shortened: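 Response was scored visually 13 to 15 days after treatment against untreated greenhouse controls, 0 meaning no effect and 100 complete control. Formulations (solvent mixture plus surfactant) went onto soil after planting, onto foliage of 1- to 4-leaf plants, and onto 2-leaf plants in a flooded paddy set including rice and barnyardgrass.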

[4] = 500 g ai/ha, visual rating 0-100, 0 no effect, 100 complete control, preemergence
[5] = Postemergence, 500 g ai/ha, visual rating after 13 to 15 days, scale 0 (no effect) to 100 (complete control)
[6] = 125 g ai/ha, visual rating, scale 0 (no effect) to 100 (complete control)
[7] = preemergence, 125 g ai/ha, 0 to 100 scale, 0 is no effect, 100 is complete control
[8] = Postemergence, 500 g ai/ha, 0 to 100 scale, 0 no effect, 100 complete control
[9] = Postemergence, 2000 g ai/ha, 0 to 100 scale, 0 no effect, 100 complete control
[10] = Preemergence, 500 g ai/ha, visual rating, 0 to 100 scale (0 no effect, 100 complete control)
[11] = Preemergence, 2000 g ai/ha, visual rating, 0 to 100 scale (0 no effect, 100 complete control)
[12] = 125 g ai/ha, scale 0 (no effect) to 100 (complete control), visual, 12 to 14 days, preemergence
[13] = 250 g ai/ha, scale 0 to 100 (0 no effect, 100 complete control), visual, 12 to 14 days, preemergence
[14] = Preemergence, scale 0 to 100, 0 no effect, 100 complete control
[15] = 62 g ai/ha, scale 0 to 100 (0 no effect, 100 complete control)
[16] = 125 g ai/ha, scale of 0 to 100, 0 is no effect, 100 is complete control
[17] = 250 g ai/ha, scale of 0 to 100, 0 is no effect, 100 is complete control
[18] = scale 0 to 100 (0 no effect, 100 complete control)
[19] = Postemergence, 250 g ai/ha, scale 0 to 100, 0 no effect, 100 complete control
[20] = postemergence, 125 g ai/ha, scale 0 to 100
[21] = postemergence, 62 g ai/ha, scale 0 to 100

CC(=NO)c1cccc(NC(=O)c2cc(C(C)(C)C)nn2C)c1 [Compound 102]
Plant response rating, Morningglory (morningglory [1]; [4]): 100 | Plant response rating, Morningglory (morningglory [1]; [5]): 30 | Morningglory plant response rating (morningglory [1]; [6]): 10 | Plant response rating, Morningglory (morningglory [1]; [7]): 50 | Crabgrass, Large plant response rating (large crabgrass; [8]): 60 | Plant response rating, Crabgrass, Large (large crabgrass; [9]): 80 | Crabgrass, Large plant response rating (large crabgrass; [10]): 95 | Crabgrass, Large plant response rating (large crabgrass; [11]): 100 | Plant response rating (0 = no effect, 100 = complete control), Bermudagrass (bermudagrass; 62 g ai/ha, preemergence): 100 | Plant response rating, Bermudagrass (bermudagrass; [12]): 100 | Plant response rating, Bermudagrass (bermudagrass; [13]): 100 | Bermudagrass plant response rating (bermudagrass; [14]): 100 | Barnyardgrass plant response rating (barnyardgrass; visual rating, 13 to 15 days): 80 | Sedge, Umbrella plant response rating [2, 15]: 50 | Sedge, Umbrella plant response rating [2, 16]: 70 | Sedge, Umbrella plant response rating [2, 17]: 70 | Plant response rating, Sedge, Umbrella [2, 18]: 80 | Plant response rating (0 = no effect, 100 = complete control), Morningglory (morningglory [3]; 62 g ai/ha, preemergence): 30 | Plant response rating, Morningglory (morningglory [3]; [12]): 70 | Morningglory plant response rating (morningglory [3]; [14]): 80 | Velvetleaf plant response rating (velvetleaf; [8]): 10 | Plant response rating, Velvetleaf (velvetleaf; [9]): 20 | Velvetleaf plant response rating (velvetleaf; [10]): 30 | Velvetleaf plant response rating (velvetleaf; [11]): 60

CC(=NO)c1cccc(NC(=O)c2cc(C(C)(C)C)nn2CC(F)(F)F)c1 [Compound 112]
Plant response rating, Morningglory (morningglory [1]; [4]): 60 | Plant response rating, Morningglory (morningglory [1]; [5]): 30 | Morningglory plant response rating (morningglory [1]; [6]): 20 | Plant response rating, Morningglory (morningglory [1]; [7]): 0 | Crabgrass, Large plant response rating (large crabgrass; [8]): 25 | Plant response rating, Crabgrass, Large (large crabgrass; [9]): 30 | Crabgrass, Large plant response rating (large crabgrass; [10]): 45 | Crabgrass, Large plant response rating (large crabgrass; [11]): 55 | Bermudagrass plant response rating (bermudagrass; Postemergence, scale 0 to 100): 30 | Plant response rating, Bermudagrass (bermudagrass; [19]): 30 | Plant response rating, Bermudagrass (bermudagrass; [20]): 0 | Plant response rating, Bermudagrass (bermudagrass; [21]): 0 | Barnyardgrass plant response rating (barnyardgrass; visual rating, 13 to 15 days): 50 | Sedge, Umbrella plant response rating [2, 15]: 0 | Sedge, Umbrella plant response rating [2, 16]: 0 | Sedge, Umbrella plant response rating [2, 17]: 25 | Plant response rating, Sedge, Umbrella [2, 18]: 50 | Morningglory plant response rating (morningglory [3]; Postemergence, scale 0 to 100): 100 | Plant response rating, Morningglory (morningglory [3]; [19]): 70 | Plant response rating, Morningglory (morningglory [3]; [20]): 20 | Plant response rating, Morningglory (morningglory [3]; [21]): 0 | Velvetleaf plant response rating (velvetleaf; [8]): 25 | Plant response rating, Velvetleaf (velvetleaf; [9]): 35 | Velvetleaf plant response rating (velvetleaf; [10]): 25 | Velvetleaf plant response rating (velvetleaf; [11]): 50

CCn1nc(C(C)(C)C)cc1C(=O)Nc1cc(C(=O)OC(C)C)c(F)cc1F [Compound 248]
Morningglory plant response rating (0 to 100 scale) (morningglory [1]; 125 g ai/ha, 0 = no effect, 100 = complete control, preemergence): 0 | Plant response rating, Morningglory (morningglory [1]; 500 g ai/ha, visual rating, 0 = no effect, 100 = complete control, preemergence): 0 | Morningglory plant response rating (morningglory [1]; [6]): 20 | Morningglory plant response rating (morningglory [1]; 500 g ai/ha, scale 0 to 100, 0 is no effect, 100 is complete control): 50 | Barnyardgrass plant response rating (barnyardgrass): 40 | Rice plant response rating (0 to 100 scale) (rice; 125 g ai/ha): 0 | Plant response rating, Rice (rice; 500 g ai/ha, visual rating): 0

CCn1nc(C(C)(C)C)cc1C(=O)Nc1cccc(C(C)=NO)c1 [Compound 108]
Plant response rating, Morningglory (morningglory [1]; [4]): 70 | Plant response rating, Morningglory (morningglory [1]; [5]): 100 | Morningglory plant response rating (morningglory [1]; [6]): 30 | Plant response rating, Morningglory (morningglory [1]; [7]): 50 | Crabgrass, Large plant response rating (large crabgrass; [8]): 65 | Plant response rating, Crabgrass, Large (large crabgrass; [9]): 85 | Crabgrass, Large plant response rating (large crabgrass; [10]): 85 | Crabgrass, Large plant response rating (large crabgrass; [11]): 100 | Plant response rating (0 = no effect, 100 = complete control), Bermudagrass (bermudagrass; 62 g ai/ha, preemergence): 100 | Plant response rating, Bermudagrass (bermudagrass; [12]): 100 | Plant response rating, Bermudagrass (bermudagrass; [13]): 100 | Bermudagrass plant response rating (bermudagrass; Postemergence, scale 0 to 100): 80 | Plant response rating, Bermudagrass (bermudagrass; [19]): 60 | Bermudagrass plant response rating (bermudagrass; [14]): 100 | Plant response rating, Bermudagrass (bermudagrass; [20]): 30 | Plant response rating, Bermudagrass (bermudagrass; [21]): 30 | Barnyardgrass plant response rating (barnyardgrass; visual rating, 13 to 15 days): 80 | Sedge, Umbrella plant response rating [2, 15]: 60 | Sedge, Umbrella plant response rating [2, 16]: 80 | Sedge, Umbrella plant response rating [2, 17]: 80 | Plant response rating, Sedge, Umbrella [2, 18]: 80 | Plant response rating (0 = no effect, 100 = complete control), Morningglory (morningglory [3]; 62 g ai/ha, preemergence): 40 | Morningglory plant response rating (morningglory [3]; [14]): 90 | Plant response rating, Morningglory (morningglory [3]; [20]): 60 | Plant response rating, Morningglory (morningglory [3]; [21]): 30 | Velvetleaf plant response rating (velvetleaf; [8]): 90 | Plant response rating, Velvetleaf (velvetleaf; [9]): 100 | Velvetleaf plant response rating (velvetleaf; [10]): 55 | Velvetleaf plant response rating (velvetleaf; [11]): 90

Source: patent US20060069132A1, “Azolecarboxamide herbicides” (priority 2004, published 2006)
